# Measured values from patent publication US20240217978A1 (CHONG KUN DANG PHARMACEUTICAL CORP., priority 2021, published 2024).
# Target: human adenosine A2a receptor (Homo sapiens (Human), UniProt P29274)
# Experiment: A2a receptor binding affinity, [3H]-NECA radioligand binding test
# Conditions: [3H]-NECA 37 nM; membrane from HEK-293 cells transfected with human adenosine A2a receptor
# Outline: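 Membranes from HEK-293 cells expressing human A2a receptor were incubated with [3H]-NECA (final 37 nM) and compound for 1 h at room temperature in 50 mM Tris, 10 mM MgCl2, 1 mM EDTA, pH 7.4. Bound ligand was filtered on PEI-coated plates and counted by scintillation to derive IC50 (μM).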
# human adenosine A2a receptor, sequence (P29274 whole entry): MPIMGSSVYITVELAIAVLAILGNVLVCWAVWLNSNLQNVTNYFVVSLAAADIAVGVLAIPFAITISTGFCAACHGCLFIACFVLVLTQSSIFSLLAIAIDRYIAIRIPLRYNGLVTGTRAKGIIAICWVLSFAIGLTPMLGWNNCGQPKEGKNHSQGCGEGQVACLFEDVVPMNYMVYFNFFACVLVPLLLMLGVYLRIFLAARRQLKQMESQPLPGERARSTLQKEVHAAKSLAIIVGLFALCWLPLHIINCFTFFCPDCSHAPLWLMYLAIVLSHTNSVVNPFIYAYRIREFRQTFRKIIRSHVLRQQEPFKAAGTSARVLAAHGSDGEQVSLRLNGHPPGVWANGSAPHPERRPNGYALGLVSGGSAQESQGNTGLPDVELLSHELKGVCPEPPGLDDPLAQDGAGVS
row,Compound,IC50
1,"Nc1nc(N2CCC[C@H]2C(=O)N2CCC(C3CCN(CC(F)F)CC3)CC2)nc2nc(-c3ccco3)nn12 [Example 287, (S)-(1-(7-amino-2-(furan-2-yl)-[1,2,4]triazolo[1,5-a][1,3,5]triazin-5-yl)pyrrolidin-2-yl)(1′-(2,2-difluoroethyl)-[4,4′-bipiperidin]-1-yl)methanone]",3 nM
2,"CC(F)(F)CN1CCC(C2CCN(C(=O)[C@@H]3CCCN3c3nc(N)n4nc(-c5ccco5)nc4n3)CC2)CC1 [Example 288, (S)-(1-(7-amino-2-(furan-2-yl)-[1,2,4]triazolo[1,5-a][1,3,5]triazin-5-yl)pyrrolidin-2-yl)(1′-(2,2-difluoropropyl)-[4,4′-bipiperidin]-1-yl)methanone]",3 nM
3,"Nc1nc(N2CCC[C@H]2C(=O)N2CCC(C3CCN(CC(F)(F)C(F)F)CC3)CC2)nc2nc(-c3ccco3)nn12 [Example 289, (S)-(1-(7-amino-2-(furan-2-yl)-[1,2,4]triazolo[1,5-a][1,3,5]triazin-5-yl)pyrrolidin-2-yl)(1′-(2,2,3,3-tetrafluoropropyl)-[4,4′-bipiperidin]-1-yl)methanone]",9 nM
4,"CC(C)(O)CC(=O)N1CCC(C2CCN(C(=O)[C@@H]3CCCN3c3nc(N)n4nc(-c5ccco5)nc4n3)CC2)CC1 [Example 290, 1-(1′-((7-amino-2-(furan-2-yl)-[1,2,4]triazolo[1,5-a][1,3,5]triazin-5-yl)-L-prolyl)-[4,4′-bipiperidin]-1-yl)-3-hydroxy-3-methylbutan-1-one]",2 nM
5,"Nc1nc(N2CCC[C@H]2C(=O)N2CCC(C3CCN(CCCC(F)(F)F)CC3)CC2)nc2nc(-c3ccco3)nn12 [Example 291, (S)-(1-(7-amino-2-(furan-2-yl)-[1,2,4]triazolo[1,5-a][1,3,5]triazin-5-yl)pyrrolidin-2-yl)(1′-(4,4,4-trifluorobutyl)-[4,4′-bipiperidin]-1-yl)methanone]",5 nM
6,"CC(C)(O)CC(=O)N1CCN(C(=O)[C@@H]2CCCN2c2cc3nc(-c4ccco4)nn3c(N)n2)CC1 [Example 292, 1-(4-((5-amino-2-(furan-2-yl)-[1,2,4]triazolo[1,5-c]pyrimidin-7-yl)-L-prolyl)piperazin-1-yl)-3-hydroxy-3-methylbutan-1-one]",21 nM
7,"Nc1nc(N2CCC[C@H]2C(=O)N2CCN(CC(F)F)CC2)cc2nc(-c3ccco3)nn12 [Example 293, (S)-(1-(5-amino-2-(furan-2-yl)-[1,2,4]triazolo[1,5-c]pyrimidin-7-yl)pyrrolidin-2-yl)(4-(2,2-difluoroethyl)piperazin-1-yl)methanone]",3 nM
8,"CC(F)(F)CN1CCN(C(=O)[C@@H]2CCCN2c2cc3nc(-c4ccco4)nn3c(N)n2)CC1 [Example 294, (S)-(1-(5-amino-2-(furan-2-yl)-[1,2,4]triazolo[1,5-c]pyrimidin-7-yl)pyrrolidin-2-yl)(4-(2,2-difluoropropyl)piperazin-1-yl)methanone]",4 nM
9,"CCC(F)(F)CN1CCN(C(=O)[C@@H]2CCCN2c2cc3nc(-c4ccco4)nn3c(N)n2)CC1 [Example 295, (S)-(1-(5-amino-2-(furan-2-yl)-[1,2,4]triazolo[1,5-c]pyrimidin-7-yl)pyrrolidin-2-yl)(4-(2,2-difluorobutyl)piperazin-1-yl)methanone]",1 nM
10,"Nc1nc(N2CCC[C@H]2C(=O)N2CCN(CC(F)(F)C(F)(F)F)CC2)cc2nc(-c3ccco3)nn12 [Example 296, (S)-(1-(5-amino-2-(furan-2-yl)-[1,2,4]triazolo[1,5-c]pyrimidin-7-yl)pyrrolidin-2-yl)(4-(2,2,3,3,3-pentafluoropropyl)piperazin-1-yl)methanone]",0.8 nM
11,"Cc1ccc(-c2nc3nc(N4CCC[C@H]4C(=O)N4CCN(CC(F)F)CC4)nc(N)n3n2)o1 [Example 297, (S)-(1-(7-amino-2-(5-methylfuran-2-yl)-[1,2,4]triazolo[1,5-a][1,3,5]triazin-5-yl)pyrrolidin-2-yl)(4-(2,2-difluoroethyl)piperazin-1-yl)methanone]",15 nM
